Measured values published in US8969303B2, “Tocotrienol esters” (First Tech International Limited, priority 2010, dated 2015).

Columns and labels:
[1] = tested on: MDA-MB-231 cells; experiment: Wound healing anti-migratory assay; format: cell-based; conditions: Homo sapiens, single dose of 5 μM, 24 hours, read-out: inhibition of the migrated MDA-MB231 cells
Procedure: The highly metastatic human breast cancer MDA-MB-231 cells were cultured in RPMI 1640 medium containing 10 mM HEPES, 4 mM L-glutamine, 10% fetal bovine serum, penicillin (100 IU mL-1), and streptomycin (50 μg mL-1), and grown in a 5% CO2 atmosphere at 37° C. Cells were plated onto sterile 24-well culture plates and allowed to recover for a confluent cell monolayer formed in each well (>95% confluence). Wounds were then inflicted to each cell monolayer using a sterile 200 μL pipette tip. Media were removed, cells monolayers were washed twice with PBS, and then fresh media containing test compounds were added to each well. Test compounds were prepared in DMSO at 5 μM concentration and added to the plates using DMSO as negative control. Tests were preformed in triplicate. The incubation was carried out for 24 hours under serum-starved conditions, after which the media was removed and the cells were fixed and stained using a Romanowski stain sold under the Diff Quick name (Dade Behring Diagnostics, Aguada, Puerto Rico). The number of cells which migrated on the scratched wound were counted under the microscope in three or more randomly selected fields (magnification: 400×). Final results are expressed as mean+/−SEM per 400× field.

[2] = tested on: +SA mammary epithelial cells; experiment: Antiproliferative MTT assay on +SA mammary epithelial cells; format: cell-based, mouse; conditions: for IC50: malignant mice +SA mammary cells, 24 hour treatment, MTT; for antiproliferative activity: +SA mammary cells, in words
Source text: +SA mammary epithelial cell lines were serially passaged at subconfluent cell density. The +SA cell line was derived from an adenocarcinoma that developed spontaneously in a BALB/c female mouse. That cell line is discussed in more detail in Anderson, L. W., Danielson, K. G., Hosick, H. L. Eur. J. Cancer Clin. Oncol. 1981, 17, 1001-1008, Danielson, K G., Anderson, L. W., Hosick, H. L. Cancer Res. 1980, 40, 1812-1819.31, and Anderson, L. W., Danielson, K. G., Hosick, H. L. In Vitro. 1979, 15, 841-843. Cell culture conditions were similar to those described in detail in Shah, S. J., Gapor, A., Sylvester, P. W. Nutr. Cancer. 2003, 45, 236-246, Shah, S. J., Sylvester, P. W. Biochem. Cell. Biol. 2005, 83, 86-95, Wali, V. B., Sylvester, P. W. Lipids, 2007, 42, 1113-1123, and Wali, V. B., Bachawal, S. V., Sylvester, P. W. Exp. Biol. Med. (Maywood) 2009, 234, 639-650. Briefly, +SA cells were maintained in serum-free defined medium consisting of Dulbecco's modified Eagle's medium (DMEM)/F12 containing 5 mg/ml bovine serum albumin (BSA), […], 100 U/ml soybean trypsin inhibitor, 100 U/ml penicillin, 0.1 mg/ml streptomycin, […], and 10 ng/ml epidermal growth factor. For subculturing, cells were rinsed twice with sterile Ca^2+ and Mg^2+-free phosphate buffered saline (PBS) and incubated in 0.05% trypsin containing 0.025% EDTA in PBS for 5 minutes at 37° C. The released cells were centrifuged, resuspended in serum-free defined media and counted using a hemocytometer. A stock solution of the Compounds was prepared in DMSO. Once dissolved, this solution was added to a small volume of sterile 10% BSA in water and incubated overnight at 37° C. This solution conjugated to BSA was used to prepare various concentrations (0-40 μM) of tocotrienol analogs. DMSO was added to all treatment media such that the final DMSO concentration was the same in all treatment groups within a given experiment and was always less than 0.1%. For cytotoxicity studies, cells were seeded at a density of 5×10^4 cells/well (6 wells/group) in 24-well culture plates and allowed to grow in serum-free control defined media. After a 3 day incubation period (approximately 70% confluency), cells were divided equally into various treatment groups and exposed to their respective treatments for a 24 hour incubation period. Following the 24 hour treatment period, cell viability was measured using the MTT assay. All materials were purchased from Sigma Chemical Company (St. Louis, Mo.) unless otherwise stated.
+SA mammary epithelial cell viable number was determined by the 3-(4,5-dimethylthiazol-2-yl)-2,5-diphenyl tetrazolium bromide (MTT) colorimetric assay. On the day of assay, treatment medium was replaced with fresh growth medium containing 0.42 mg/ml MTT, and the cells in 24-well plates were incubated at 37° C. for 4 hours. Afterward, the medium was removed, and the MTT crystals were dissolved in isopropyl alcohol (1 ml/well). The optical density of each sample was read at 570 nm on a microplate reader (SpectraCount, Packard BioScience Company), against a blank prepared from cell-free cultures. The number of cells/well was calculated against a standard curve prepared by plating various concentrations of cells, as determined by hemocytometer, at the start of each experiment.
Differences among the various treatment groups in +SA cell cytotoxic studies were determined by analysis of variance (ANOVA) followed by Dunnett's t-test. The difference of P<0.05 was considered to be statistically significant as compared with vehicle-treated controls. Linear regression analysis of treatment effects on viable cell number in growth and cytotoxicity studies was used to determine the 50% growth inhibition concentration (IC50) for individual treatments.

[3] = Stability in phosphate buffer; format: physicochemical; conditions: phosphate buffer pH 7.4, 37° C.
Procedure: The stability of each of α-tocotrienol and Compound 6 was studied at 37° C. in phosphate buffer (pH 7.4). In amber vials, 500 μg/mL of each compound were dissolved in the buffer and the solution was incubated at 37° C. At interval times (0, 0.5, 1, 2, 4, 6, and 24 h), 50 μL it samples were collected and equal volumes of methanol were added to each sample followed by HPLC analysis.
A Shimadzu HPLC system (Columbia, Md.) was used for quantification of α-tocotrienol and Compound 6. This system is composed of SIL 20-AHT autosampler, SPD-20A UV/VIS detector, and LC-20AB pump connected to a Dgu-20A3 degasser. Data acquisition was achieved by LC Solution software version 1.22 SP1 Shimadzu. The following chromatographic conditions were used: […] (250×4.6 mm id; Phenomenex, Torrance, Calif.), flow rate was adjusted to 1.0 mL/min, and λ was set at 295 nm. For α-tocotrienol solubility and stability studies, an isocratic elution with MeOH-EtOH—CH3CN (40:30:30, v/v/v) as mobile phase for 10 min. α-tocotrienol was eluted at 6.7 min. For the simultaneous separation of α-tocotrienol and Compound 6 the following gradient elution was also used starting with H2O— MeOH—N(Et)3 (10:90:0.05, v/v/v) for 5 min, followed by isocratic MeOH—N(Et)3 (100:0.05, v/v) for another 10 min. The retention times were 4 and 14.1 for Compound 6 and α-tocotrienol, respectively. Standard curves for α-tocotrienol and Compound 6 in MeOH were prepared in the range of 0.4-50 μg/mL and 1-1000 μg/mL, respectively. Each compound was quantified using its calibration curve for compounds peak area versus its concentration.

[4] = Mus musculus, Epithelial cell, 24 h

Row | Compound | IC50 [2, 4] | further results
1 | CC(C)=CCC/C(C)=C/CC/C(C)=C/CC[C@]1(C)CCc2c(C)c(OC(=O)c3ccc(C(=O)O)cc3C(=O)O)c(C)c(C)c2O1 [Compound 1, 4-(((R)-2,5,7,8-tetramethyl-2-((3E,7E)-4,8,12-trimethyltrideca-3,7,11-trienyl)chroman-6-yloxy)carbonyl)isophthalic acid] | 1500 nM | inhibition at 5 µM [1]: ~50%
2 | CC(C)=CCC/C(C)=C/CC/C(C)=C/CC[C@]1(C)CCc2cc(OC(=O)c3ccc(C(=O)O)cc3C(=O)O)c(C)c(C)c2O1 [Compound 2, 4-(((R)-2,7,8-trimethyl-2-((3E,7E)-4,8,12-trimethyltrideca-3,7,11-trienyl)chroman-6-yloxy)carbonyl)isophthalic acid] | 620 nM | –
3 | CC(C)=CCC/C(C)=C/CC/C(C)=C/CC[C@]1(C)CCc2c(C)c(OC(=O)c3cc(C(=O)O)ccc3C(=O)O)c(C)c(C)c2O1 [Compound 3, 2-(((R)-2,5,7,8-tetramethyl-2-((3E,7E)-4,8,12-trimethyltrideca-3,7,11-trienyl)chroman-6-yloxy)carbonyl)terephthalic acid] | 1460 nM | inhibition at 5 µM [1]: ~50%
4 | CC(C)=CCC/C(C)=C/CC/C(C)=C/CC[C@]1(C)CCc2cc(OC(=O)c3cc(C(=O)O)ccc3C(=O)O)c(C)c(C)c2O1 [Compound 4, 2-(((R)-2,7,8-trimethyl-2-((3E,7E)-4,8,12-trimethyltrideca-3,7,11-trienyl)chroman-6-yloxy)carbonyl)terephthalic acid] | 1440 nM | –
5 | CC(C)=CCC/C(C)=C/CC/C(C)=C/CC[C@]1(C)CCc2cc(OC(=O)c3cc(C(=O)O)ccc3C(=O)O)cc(C)c2O1 [Compound 5, 2-(((R)-2,8-dimethyl-2-((3E,7E)-4,8,12-trimethyltrideca-3,7,11-trienyl)chroman-6-yloxy)-carbonyl)terephthalic acid] | 1500 nM | –
6 | CC(C)=CCC/C(C)=C/CC/C(C)=C/CC[C@]1(C)CCc2cc(OC(=O)/C=C\C(=O)O)c(C)c(C)c2O1 [Compound 7, (Z)-4-oxo-4-((R)-2,7,8-trimethyl-2-((3E,7E)-4,8,12-trimethyltrideca-3,7,11-trienyl)-chroman-6-yloxy)but-2-enoic acid] | 2300 nM | –
7 | CC(C)=CCC/C(C)=C/CC/C(C)=C/CC[C@]1(C)CCc2cc(OC(=O)/C=C\C(=O)O)cc(C)c2O1 [Compound 8, (Z)-4-((R)-2,8-dimethyl-2-((3E,7E)-4,8,12-trimethyltrideca-3,7,11-trienyl)chroman-6-yloxy)-4-oxobut-2-enoic acid] | 860 nM | IC50 [2]: 870 nM
8 | CC(C)=CCC/C(C)=C/CC/C(C)=C/CC[C@]1(C)CCc2cc(OC(=O)CC(C)CC(=O)O)c(C)c(C)c2O1 (stereo partly drawn) [Compound 9, 3-Methyl-5-oxo-5-((R)-2,7,8-trimethyl-2-((3E,7E)-4,8,12-trimethyltrideca-3,7,11-trienyl)chroman-6-yloxy)pentanoic acid] | 19200 nM | antiproliferative activity [2]: inactive
9 | CC(C)=CCC/C(C)=C/CC/C(C)=C/CC[C@]1(C)CCc2cc(OC(=O)c3ccccc3)c(C)c(C)c2O1 [Compound 10, (R)-2,7,8-trimethyl-2-((3E,7E)-4,8,12-trimethyltrideca-3,7,11-trienyl)chroman-6-yl benzoate] | 6550 nM | inhibition at 5 µM [1]: ~50%; antiproliferative activity [2]: inactive
10 | CC(=O)Oc1cc(C(=O)Oc2cc3c(c(C)c2C)O[C@](C)(CC/C=C(\C)CC/C=C(\C)CCC=C(C)C)CC3)cc(OC(C)=O)c1OC(C)=O [Compound 11, 5-(((R)-2,7,8-trimethyl-2-((3E,7E)-4,8,12-trimethyltrideca-3,7,11-trienyl)chroman-6-yloxy)carbonyl)benzene-1,2,3-triyl triacetate] | 1720 nM | –
11 | CC(=O)Oc1ccc(/C=C/C(=O)Oc2cc3c(c(C)c2C)O[C@](C)(CC/C=C(\C)CC/C=C(\C)CCC=C(C)C)CC3)cc1OC(C)=O [Compound 12, 4-((E)-3-oxo-3-((R)-2,7,8-trimethyl-2-((3E,7E)-4,8,12-trimethyltrideca-3,7,11-trienyl)chroman-6-yloxy)prop-1-enyl)-1,2-phenylene diacetate] | > 40000 nM | antiproliferative activity [2]: inactive
12 | CC(C)=CCC/C(C)=C/CC/C(C)=C/CC[C@]1(C)CCc2c(C)c(O)c(C)c(C)c2O1 [α-tocotrienol] | – | stability in phosphate buffer (in words) [3]: highly unstable; start of decomposition after dissolution [3]: 1 h; chemical stability relative to the zero time concentration ([3]; over 24 h): completely undetectable
